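Assay format: 96-well plates, 48-hour exposure. GI50 marks 50% less growth.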 Calls of active or inactive are those of the source. No stated cut-off is given here; in the data, active = GI50 up to about 1.1 µM and inactive = higher.
Columns and labels:
Assay in all cases: inhibition of tumour cell growth, NCI panel, 48 h
XF498 = test system: XF498
DU-145 = test system: DU-145
Hs-578T = test system: Hs-578T
MDA-N = test system: MDA-N
T47D = test system: T47D
PC-3 = test system: PC-3
LXFL 529 = test system: LXFL 529
RXF 631 = test system: RXF 631
786-0 = test system: 786-0

Structure (SMILES) | GI50 (XF498) | GI50 (DU-145) | GI50 (Hs-578T) | GI50 (MDA-N) | GI50 (T47D) | GI50 (LXFL 529) | also measured
COc1ccc2c(c1)OCCc1cn[nH]c1-2 | 29 µM (inactive) | – | – | – | – | – | –
CCC(=O)NC(Nc1ccc(O)cc1)(C(F)(F)F)C(F)(F)F | – | > 100 µM (inactive) | > 100 µM (inactive) | 17.9 µM (inactive) | 49.4 µM (inactive) | – | –
COC(=O)C1=C(C(=O)OC)SC2(S1)C1=C(CCCC1)SC(C(=O)OC)=C2C(=O)OC | – | 1.64 µM (inactive) | 15.9 µM (inactive) | 3.9 µM (inactive) | 2.54 µM (inactive) | – | GI50 (PC-3): 5.02 µM (inactive)
C/C(=C/C(=O)Nc1ccccc1)Nc1onc(C)c1C | > 100 µM (inactive) | – | – | – | – | – | –
O=C(O)c1cc([N+](=O)[O-])cc2c(=O)c3cnccc3[nH]c12 | – | > 100 µM (inactive) | > 100 µM (inactive) | > 100 µM (inactive) | > 100 µM (inactive) | – | GI50 (PC-3): 29.6 µM (inactive)
CC(=O)CCC#Cc1ccccc1C(=O)C(C)=[N+]=[N-] | 20.5 µM (inactive) | – | – | – | – | – | –
Cc1ccc(Sc2ccccc2[N+](=O)[O-])cc1 | – | – | – | – | – | 29.6 µM (inactive) | –
CC(C)c1cccc(C(C)C)c1NC(=S)Nc1ccccc1 | 0.434 µM (active) | – | – | – | – | > 100 µM (inactive) | GI50 (RXF 631): > 100 µM (inactive)
O=C1Sc2ccccc2NC1=C(C(=O)c1ccccc1)C(=O)c1ccccc1 | – | 21.2 µM (inactive) | 62.5 µM (inactive) | 33.7 µM (inactive) | 26.5 µM (inactive) | – | GI50 (786-0): 26.2 µM (inactive); GI50 (PC-3): 20.6 µM (inactive)
O=S(=O)(CF)OCCCCOS(=O)(=O)CF | – | – | – | – | – | > 100 µM (inactive) | GI50 (RXF 631): > 100 µM (inactive)
COc1nn(Cc2ccccc2F)c2ccc([N+](=O)[O-])cc12 | – | > 100 µM (inactive) | > 45.9 µM (inactive) | 3.4 µM (inactive) | > 100 µM (inactive) | – | GI50 (786-0): > 100 µM (inactive)
COc1cccc(N[C@@H]2c3cc4c(cc3C(c3cc(OC)c(O)c(OC)c3)[C@H]3C(=O)OCC32)OCO4)c1 (stereo partly specified) | 1.12 µM (inactive) | – | – | – | – | – | –
CCc1nnc(-c2nsc3ccccc23)s1 | – | – | – | – | – | > 100 µM (inactive) | –
